Read-outs that look alike come from different tables or passages of the source.
Experiments:
[1] = In vitro viability test (MTT) on non-cancerous Vero cell lines; format: cell-based; conditions: African green monkey, Vero cells (non-cancerous), non-cancerous model, read-out: Cytotoxicity Against Vero Cell Lines (IC50)
Description: (§1) An in-vitro viability test was used to investigate the safety patterns of the tested compounds at different concentrations. The Vero cell lines were used as a non-cancerous model to investigate the safety of the targeted compounds. […] Such values are very high in comparison to the corresponding values on the cancer cell lines, which reflect the high in vitro safety profiles of the tested members towards the examined non-cancerous cell lines (Table 2).

human VEGFR-2 = human VEGFR-2 (Homo sapiens, UniProt P35968); assay: In vitro VEGFR-2 enzyme inhibition assay (Human VEGFR-2 ELISA kit)
HCT-116 = assay: In vitro anti-proliferative activity (MTT assay), HCT-116; conditions: for Selectivity index (SI) (HCT-116): Cytotoxicity against Vero cells/cytotoxicity against HCT-116
HepG2 = assay: In vitro anti-proliferative activity (MTT assay), HepG2; conditions: for Selectivity index (SI) (HepG2): cytotoxicity against Vero cells/cytotoxicity against HepG2
Vero cell lines = assay: In vitro viability test (MTT) on non-cancerous Vero cell lines; format: cell-based; conditions: non-cancerous model, read-out: Cytotoxicity Against Vero Cell Lines (IC50)
Description: as §1

caspase-8 = assay: Caspase-8 expression level in treated HCT-116 cells (qRT-PCR); conditions: HCT-116, 5.4 µM, 24 h
HCT-116 cells [2] = assay: Flow cytometry analysis for apoptosis (Annexin V and PI double staining); format: cell-based, human; conditions: HCT-116, 5.4 µM, 24 h
Bcl-2 = Bcl-2 expression level in treated HCT-116 cells (qRT-PCR); conditions: HCT-116, 5.4 µM, 24 h
TNF-α = TNF-α level in treated HCT-116 cells (qRT-PCR); format: cell-based; conditions: Homo sapiens; HCT-116, 5.4 µM, 24 h; control 82.47
HCT-116 cells [3] = assay: Flow cytometry analysis for cell cycle (PI staining); format: cell-based, human; conditions: HCT-116, 5.4 µM, 24 h
IL-6 = IL-6 level in treated HCT-116 cells (qRT-PCR); format: cell-based, human; conditions: HCT-116, 5.4 µM, 24 h
Bax = Bax expression level in treated HCT-116 cells (qRT-PCR); conditions: HCT-116, 5.4 µM, 24 h
[4] = Homo sapiens, HCT-116, read-out: Cytotoxicity IC50 HCT-116
[5] = Homo sapiens, HepG2, read-out: Cytotoxicity IC50 HepG2

human VEGFR-2, sequence (P35968 20-1356): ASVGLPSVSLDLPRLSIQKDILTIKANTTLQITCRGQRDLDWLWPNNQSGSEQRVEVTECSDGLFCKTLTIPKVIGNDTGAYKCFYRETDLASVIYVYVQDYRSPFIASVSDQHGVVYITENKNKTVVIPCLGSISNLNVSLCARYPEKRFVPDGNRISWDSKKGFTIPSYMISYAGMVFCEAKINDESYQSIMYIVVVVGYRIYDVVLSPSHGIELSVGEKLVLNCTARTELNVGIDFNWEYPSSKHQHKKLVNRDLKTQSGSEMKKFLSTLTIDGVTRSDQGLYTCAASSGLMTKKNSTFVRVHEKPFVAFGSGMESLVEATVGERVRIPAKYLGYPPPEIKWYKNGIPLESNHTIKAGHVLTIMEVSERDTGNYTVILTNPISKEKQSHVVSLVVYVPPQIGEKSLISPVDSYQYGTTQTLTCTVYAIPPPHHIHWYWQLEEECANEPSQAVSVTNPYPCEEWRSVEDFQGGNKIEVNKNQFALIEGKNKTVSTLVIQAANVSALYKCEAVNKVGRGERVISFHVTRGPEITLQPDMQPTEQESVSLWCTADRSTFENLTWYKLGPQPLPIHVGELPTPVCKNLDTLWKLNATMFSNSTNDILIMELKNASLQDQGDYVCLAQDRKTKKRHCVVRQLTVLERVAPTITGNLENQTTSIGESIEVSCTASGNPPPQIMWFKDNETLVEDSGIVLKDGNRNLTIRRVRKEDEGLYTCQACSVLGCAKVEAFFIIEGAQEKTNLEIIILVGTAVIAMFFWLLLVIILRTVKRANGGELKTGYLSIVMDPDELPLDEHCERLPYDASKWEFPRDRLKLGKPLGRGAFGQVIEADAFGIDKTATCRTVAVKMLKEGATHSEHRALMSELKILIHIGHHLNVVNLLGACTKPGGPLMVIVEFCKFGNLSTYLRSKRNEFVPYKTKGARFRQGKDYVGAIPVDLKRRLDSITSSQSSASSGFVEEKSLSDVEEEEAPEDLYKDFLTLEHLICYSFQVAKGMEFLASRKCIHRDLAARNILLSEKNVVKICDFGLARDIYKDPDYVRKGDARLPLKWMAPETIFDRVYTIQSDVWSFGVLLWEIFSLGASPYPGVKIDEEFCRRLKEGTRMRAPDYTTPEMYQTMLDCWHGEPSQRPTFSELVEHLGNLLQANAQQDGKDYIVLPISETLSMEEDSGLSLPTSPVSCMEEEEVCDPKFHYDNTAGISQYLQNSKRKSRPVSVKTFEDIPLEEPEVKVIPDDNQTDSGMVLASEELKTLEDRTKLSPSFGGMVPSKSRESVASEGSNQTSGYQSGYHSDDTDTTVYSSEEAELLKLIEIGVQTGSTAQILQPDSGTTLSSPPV

CC(=NNC(N)=S)c1ccc(NC(=O)c2cccnc2)cc1 [Compound 11, N-(4-(1-(2-Carbamothioylhydrazono)ethyl)phenyl)nicotinamide]
IC50 [1]: 105 µM | IC50 (human VEGFR-2): 0.0834 ± 0.00553 µM | Selectivity index (SI) (HCT-116) (HCT-116): 4.20 | IC50 (HCT-116; [4]): 25.07 ± 0.07 µM | IC50 (HepG2; [5]): 20.3 ± 0.064 µM | Selectivity index (SI) (HepG2) (HepG2): 5.19

(E)-N-(4-(1-(2-(2,6-Dinitrophenyl)hydrazono)ethyl)phenyl)nicotinamide [Compound 12]
IC50 (Vero cell lines): 95.4 µM | IC50 (human VEGFR-2; read-out: VEGFR-2 IC50, mean ± S.D. of three separate experiments): 0.115 ± 0.00733 µM | Selectivity index (SI) (HCT-116) (HCT-116): 5.24 | IC50 (HCT-116; read-out: Cytotoxicity IC50 HCT-116, MTT, mean ± S.D. of three separate experiments): 18.2 ± 0.06 µM | Selectivity index (SI) (HepG2) (HepG2): 5.45 | IC50 (HepG2; read-out: Cytotoxicity IC50 HepG2, MTT, mean ± S.D. of three separate experiments): 17.5 ± 0.058 µM

O=C(N/N=C/c1ccc(Cl)cc1Cl)c1ccc(NC(=O)c2cccnc2)cc1 [Compound 6, (E)-N-(4-(2-(2,4-Dichlorobenzylidene)hydrazine-1-carbonyl)phenyl)-nicotinamide]
IC50 [1]: 84.7 µM | IC50 (human VEGFR-2): 0.172 ± 0.0102 µM | Selectivity index (SI) (HCT-116) (HCT-116): 4.76 | IC50 (HCT-116; [4]): 17.8 ± 0.059 µM | IC50 (HepG2; [5]): 16.5 ± 0.057 µM | Selectivity index (SI) (HepG2) (HepG2): 5.13

CNC(=O)c1cc(Oc2ccc(NC(=O)Nc3ccc(Cl)c(C(F)(F)F)c3)cc2)ccn1 [Sorafenib, sorafenib, reference compound]
IC50 (HCT-116; [4]): 9.3 ± 0.201 µM | IC50 (HepG2; [5]): 7.4 ± 0.235 µM

CN(C)c1ccc(/C=C/C=N/NC(=O)c2ccc(NC(=O)c3cccnc3)cc2)cc1 [Compound 8, N-(4-(2-((1E,2E)-3-(4-(Dimethylamino)phenyl)allylidene)hydrazine-1-carbonyl)phenyl)nicotinamide]
IC50 [1]: 85.2 µM | Increase in caspase-8 level vs control cells (caspase-8): 9.4 fold | Caspase-8 expression level (caspase-8; control 50.317): 472.3 pg/mL | Increase in total apoptosis vs control (HCT-116 cells [2]): 6.5 fold | Necrosis (HCT-116 cells [2]; control 0.62): 1.85% | Apoptosis Early (HCT-116 cells [2]; control 0.7): 3.74% | Apoptosis Late (HCT-116 cells [2]; control 1.73): 14.23% | Apoptosis Total (HCT-116 cells [2]; control 3.05): 19.82% | IC50 (human VEGFR-2): 0.077 ± 0.00425 µM | Selectivity index (SI) (HCT-116) (HCT-116): 15.79 | IC50 (HCT-116; [4]): 5.4 ± 0.02 µM | Decrease in Bcl-2 level vs control cells (Bcl-2): 3 fold | Bcl-2 expression level (Bcl-2; control 5.603): 1.844 pg/mL | inhibition at 5.4 µM (TNF-α): 92.4% | Augmentation of G0–G1 phase vs control (HCT-116 cells [3]): 1.42 fold | Decline of cell population at G2/M phase vs control (HCT-116 cells [3]): 2.11 fold | Cell Cycle Distribution %G2-M (HCT-116 cells [3]; control 27.29): 12.91% | Cell Cycle Distribution % S (HCT-116 cells [3]; control 33.75): 31.47% | Cell Cycle Distribution %G0-G1 (HCT-116 cells [3]; control 38.96): 55.62% | Cell Cycle Distribution %Pre-G1 (HCT-116 cells [3]; control printed 19.82): 3.05% | Effect on the level of IL-6 (in words) (IL-6): non-significant reduction | inhibition at 5.4 µM (IL-6; Homo sapiens, control 93.15): 94.1% | IC50 (HepG2; [5]): 7.1 ± 0.03 µM | Selectivity index (SI) (HepG2) (HepG2): 12.01 | Increase in Bax level vs control cells (Bax): 9.2 fold | Bax expression level (Bax; control 42.19): 387.26 pg/mL

COc1ccc(/C=N/NC(=O)c2ccc(NC(=O)c3cccnc3)cc2)cc1OC [Compound 7, (E)-N-(4-(2-(3,4-Dimethoxybenzylidene)hydrazine-1-carbonyl)phenyl)-nicotinamide]
IC50 [1]: 128 µM | IC50 (human VEGFR-2): 0.113 ± 0.00723 µM | Selectivity index (SI) (HCT-116) (HCT-116): 6.66 | IC50 (HCT-116; [4]): 19.2 ± 0.062 µM | IC50 (HepG2; [5]): 18.8 ± 0.061 µM | Selectivity index (SI) (HepG2) (HepG2): 6.80

Source: PMC9268560, “Design, Synthesis, In Silico and In Vitro Studies of New Immunomodulatory Anticancer Nicotinamide Derivatives Targeting VEGFR-2” (Molecules, 2022)
